Laboratory results taken from US20240158446A1, “CYCLIC COMPOUND HAVING SELECTIVE INHIBITORY ACTION ON KRAS OVER HRAS AND NRAS” (CHUGAI SEIYAKU KABUSHIKI KAISHA, priority 2021, published 2024).
Like-named read-outs stand apart in the source and are kept apart here. *1 amine or outer side, *2 acyl side, *3 side chain or, on linkers, in order; H or OH if unused. Where a SMILES comes first, the peptide text is derived from it. Bridges are numbered along the chain shown (N, C = ends). [ ]: non-standard residue; d: D form. The star is where a group is joined. hPhe(3,5-F2-4-CF3) = N[C@@H](CCc1cc(F)c(C(F)(F)F)c(F)c1)C(=O)O; hPhe(3-Cl-4-CF3) = N[C@@H](CCc1ccc(C(F)(F)F)c(Cl)c1)C(=O)O; X23 = C=CCCN([C@@H](Cc1ccc(C(F)(F)F)cc1)C(=O)[*:2])[*:1]; NPrPhe(4-CF3) = CCCN[C@@H](Cc1ccc(C(F)(F)F)cc1)C(=O)O; NMeGly(cPent) = CN[C@H](C(=O)O)C1CCCC1; αMeCha = C[C@](N)(CC1CCCCC1)C(=O)O; Hyp = O=C(O)[C@@H]1C[C@@H](O)CN1; Piperidide(4-Me) = CC1CCN(*)CC1; NMeD = CN[C@@H](CC(=O)O)C(=O)O; NMeL = CN[C@@H](CC(C)C)C(=O)O; Morpholide = C1CN(*)CCO1; NMeA = CN[C@@H](C)C(=O)O; Ac5c = NC1(C(=O)O)CCCC1; Aze = O=C(O)[C@@H]1CCN1; X24 = CC1(C)CCN(*)C1; Sar = CNCC(=O)O

Tests used:
[1] = molecular target: GDP-bound KRAS wild-type protein (Homo sapiens, UniProt P01116); test: Binding to KRAS by surface plasmon resonance (SPR), Single Cycle Kinetics; conditions: GDP-bound KRAS wild-type protein, read-out: KRAS KD
[2] = molecular target: GDP-bound HRAS wild-type protein (Homo sapiens, UniProt P01112); test: Binding to HRAS by surface plasmon resonance (SPR), Single Cycle Kinetics; conditions: for HRAS/KRAS (ratio of KD value for HRAS to KD value for KRAS) / HRAS/KRAS (ratio of KD value with respect to HRAS to KD value with respect to KRAS): SPR, GDP-bound HRAS wild-type protein vs GDP-bound KRAS wild-type protein
[3] = molecular target: GDP-bound NRAS wild-type protein (Homo sapiens, UniProt P01111); test: Binding to NRAS by surface plasmon resonance (SPR), Single Cycle Kinetics; conditions: for NRAS/KRAS (ratio of KD value for NRAS to KD value for KRAS) / NRAS/KRAS (ratio of KD value with respect to NRAS to KD value with respect to KRAS): SPR, GDP-bound NRAS wild-type protein vs GDP-bound KRAS wild-type protein
[4] = SPR Single Cycle Kinetics, 1:1 binding model

Sequence of GDP-bound NRAS wild-type protein (P01111 whole entry): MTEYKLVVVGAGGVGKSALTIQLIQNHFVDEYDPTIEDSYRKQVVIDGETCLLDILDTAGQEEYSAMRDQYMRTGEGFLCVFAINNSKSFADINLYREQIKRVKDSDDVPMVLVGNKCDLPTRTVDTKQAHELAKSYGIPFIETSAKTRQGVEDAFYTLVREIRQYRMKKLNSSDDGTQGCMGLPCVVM
Sequence of GDP-bound HRAS wild-type protein (P01112 whole entry): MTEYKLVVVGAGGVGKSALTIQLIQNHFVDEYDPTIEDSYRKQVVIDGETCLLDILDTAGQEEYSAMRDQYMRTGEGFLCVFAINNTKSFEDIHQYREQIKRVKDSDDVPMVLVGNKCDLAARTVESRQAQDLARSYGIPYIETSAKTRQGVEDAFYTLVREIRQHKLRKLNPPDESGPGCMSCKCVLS
Sequence of GDP-bound KRAS wild-type protein (P01116 whole entry): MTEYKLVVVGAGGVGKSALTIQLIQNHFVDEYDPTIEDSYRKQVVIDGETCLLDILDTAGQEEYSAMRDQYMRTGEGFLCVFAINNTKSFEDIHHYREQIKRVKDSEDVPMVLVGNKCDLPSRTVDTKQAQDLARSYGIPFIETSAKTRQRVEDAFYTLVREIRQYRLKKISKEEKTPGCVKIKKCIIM

Row | SMILES | Kd [1, 4] [nM] | HRAS/KRAS (ratio of KD value with respect to HRAS to KD value with respect to KRAS) [2] | NRAS/KRAS (ratio of KD value with respect to NRAS to KD value with respect to KRAS) [3] | HRAS/KRAS (ratio of KD value for HRAS to KD value for KRAS) [2] | NRAS/KRAS (ratio of KD value for NRAS to KD value for KRAS) [3] | other results
1 | CCCOC[C@H]1C(=O)N[C@@H]([C@@H](C)CC)C(=O)N(C)CC(=O)N(C)[C@H]2C/C=C\CCN(C2=O)[C@@H](Cc2ccc(C(F)(F)F)cc2)C(=O)N(C)CC(=O)N[C@@H](CCc2cc(F)c(C(F)(F)F)c(F)c2)C(=O)N2C[C@H](OCC)C[C@H]2C(=O)NC2(CCC2)C(=O)N(C)[C@@H](C2CCCC2)C(=O)N(C)[C@H](C(=O)N(C)CC)CC(=O)N1C [PP1569] | – | – | – | – | – | Kd ([1]; SPR, Single Cycle Kinetics, 1:1 binding model): 0.11 nM; HRAS/KRAS (ratio of KD value for HRAS to KD value for KRAS) ([2]; KD ratio class): B (a compound having 3 or more and less than 10 is denoted as B); NRAS/KRAS (ratio of KD value for NRAS to KD value for KRAS) ([3]; KD ratio class): A (a compound having 10 or more and less than 20 is denoted as A)
2 | CC[C@H](C)[C@@H]1NC(=O)[C@H](CC(C)C)N(C)C(=O)C[C@@H](C(=O)N2CCOCC2)N(C)C(=O)[C@H](C2CCCC2)N(C)C(=O)C2(CC(F)(F)C2)NC(=O)[C@@H]2CCCN2C(=O)[C@H](CCc2cc(F)c(C(F)(F)F)c(F)c2)NC(=O)CN(C)C(=O)[C@H](Cc2ccc(C(F)(F)F)cc2)N2CCCCC[C@@H](C2=O)N(C)C(=O)CN(C)C1=O [PP0499] | 1.1 | B (a compound having 3 or more and less than 10 is denoted as B) | B (a compound having 3 or more and less than 10 is denoted as B) | – | – | –
3 | CCCN1C(=O)[C@@H]2CCN2C(=O)[C@H](C)N(C)C(=O)[C@H]([C@@H](C)CC)NC(=O)[C@H](CC(C)C)N(C)C(=O)C[C@@H](C(=O)N2CCC(C)(C)C2)N(C)C(=O)[C@H](C2CCCC2)N(C)C(=O)C2(CCCC2)NC(=O)[C@@H]2CCCN2C(=O)[C@H](CCc2ccc(C(F)(F)F)c(Cl)c2)NC(=O)CN(C)C(=O)[C@@H]1Cc1ccc(C(F)(F)F)cc1 [PP0186] ([NMeL]I[NMeA][Aze][NPrPhe(4-CF3)][Sar][hPhe(3-Cl-4-CF3)]P[Ac5c][NMeGly(cPent)][NMeD]-X24; lactam N-11) | 1.7 | – | – | B (a compound having 3 or more and less than 10 is denoted as B) | C (A compound having a KD ratio of 0.1 or more and less than 3 is denoted as C) | –
4 | CC[C@H](C)[C@@H]1NC(=O)[C@H](CC(C)C)N(C)C(=O)C[C@@H](C(=O)N2CCOCC2)N(C)C(=O)[C@H](C2CCCC2)N(C)C(=O)C2(CCCC2)NC(=O)[C@@H]2CCCN2C(=O)[C@H](CCc2cc(F)c(C(F)(F)F)c(F)c2)NC(=O)CN(C)C(=O)[C@H](Cc2ccc(C(F)(F)F)cc2)N2CCCC[C@@H](C2=O)N(C)C(=O)[C@H](C)N(C)C1=O [PP0544] | 18 | B (a compound having 3 or more and less than 10 is denoted as B) | B (a compound having 3 or more and less than 10 is denoted as B) | – | – | –
5 | CCCN1C(=O)CN(C)C(=O)CNC(=O)[C@H]([C@@H](C)CC)NC(=O)[C@H](CC(C)C)N(C)C(=O)C[C@@H](C(=O)N2CCOCC2)NC(=O)[C@H](C2CCCC2)N(C)C(=O)C2(CCCC2)NC(=O)[C@@H]2CCCN2C(=O)[C@H](CCc2ccc(C(F)(F)F)c(Cl)c2)NC(=O)CN(C)C(=O)[C@@H]1Cc1ccc(C(F)(F)F)cc1 [PP0325] ([NMeL]IG[Sar][NPrPhe(4-CF3)][Sar][hPhe(3-Cl-4-CF3)]P[Ac5c][NMeGly(cPent)]D-Morpholide; lactam N-11) | 1.1 | – | – | B (a compound having 3 or more and less than 10 is denoted as B) | B (a compound having 3 or more and less than 10 is denoted as B) | –
6 | CCO[C@@H]1C[C@H]2C(=O)NC3(CCC3)C(=O)N(C)[C@@H](C3CCCC3)C(=O)N(C)[C@H](C(=O)N(C)C)CC(=O)N(C)[C@@H](CC)C(=O)N[C@@H]([C@@H](C)CC)C(=O)N(C)CC(=O)N(C)[C@H]3CCCCN(C3=O)[C@@H](Cc3ccc(C(F)(F)F)cc3)C(=O)N(C)CC(=O)N[C@@H](CCc3cc(Cl)c(Cl)c(Cl)c3)C(=O)N2C1 [PP0988] | – | – | – | B (a compound having 3 or more and less than 10 is denoted as B) | C (A compound having a KD ratio of 0.1 or more and less than 3 is denoted as C) | Kd ([1]; SPR, Single Cycle Kinetics): 0.046 nM
7 | CCC[C@H]1C(=O)N[C@@H]([C@@H](C)CC)C(=O)N(C)CC(=O)N(C)[C@H]2C/C=C\CCN(C2=O)[C@@H](Cc2ccc(C)cc2)C(=O)N(C)CC(=O)N[C@@H](CCc2ccc(Cl)c(C(F)(F)F)c2)C(=O)N2C[C@H](OCC)C[C@H]2C(=O)NC2(CC(C)(C)C2)C(=O)N(C)[C@@H](C(CC)CC)C(=O)N(C)[C@H](C(=O)N(C)C)CC(=O)N1C [PP2787] | 0.36 | – | – | – | – | HRAS/KRAS (ratio of KD value with respect to GDP-bound HRAS wild-type protein to KD value with respect to KRAS) ([2]; SPR KD ratio HRAS/KRAS, class symbols): A (a compound having 10 or more and less than 20 is denoted as A); NRAS/KRAS (ratio of KD value with respect to GDP-bound NRAS wild-type protein to KD value with respect to KRAS) ([3]; SPR KD ratio NRAS/KRAS, class symbols): AA (a compound having 20 or more is denoted as AA)
8 | CCCN1C(=O)[C@@H]2CCN2C(=O)CN(C)C(=O)[C@H]([C@@H](C)CC)NC(=O)[C@H](CC(C)C)N(C)C(=O)C[C@@H](C(=O)N2CCOCC2)N(C)C(=O)[C@H](C2CCCC2)N(C)C(=O)[C@](C)(CC2CCCCC2)NC(=O)[C@@H]2CCCN2C(=O)[C@H](CCc2cc(F)c(C(F)(F)F)c(F)c2)NC(=O)CN(C)C(=O)[C@@H]1Cc1ccc(C(F)(F)F)cc1 [PP0796] ([NMeL]I[Sar][Aze][NPrPhe(4-CF3)][Sar][hPhe(3,5-F2-4-CF3)]P[αMeCha][NMeGly(cPent)][NMeD]-Morpholide; lactam N-11) | 7.5 | B (a compound having 3 or more and less than 10 is denoted as B) | C (A compound having a KD ratio of 0.1 or more and less than 3 is denoted as C) | – | – | –
9 | C=CCCN1C(=O)[C@@H]2CCN2C(=O)[C@H](C)N(C)C(=O)[C@H]([C@@H](C)CC)NC(=O)[C@H](CC(C)C)N(C)C(=O)C[C@@H](C(=O)N2CCOCC2)N(C)C(=O)[C@H](C2CCCC2)N(C)C(=O)C2(CCCC2)NC(=O)[C@@H]2CCCN2C(=O)[C@H](CCc2ccc(C(F)(F)F)c(Cl)c2)NC(=O)CN(C)C(=O)[C@@H]1Cc1ccc(C(F)(F)F)cc1 [PP0115] ([NMeL]I[NMeA][Aze][X23][Sar][hPhe(3-Cl-4-CF3)]P[Ac5c][NMeGly(cPent)][NMeD]-Morpholide; lactam N-11) | 0.21 | – | – | C (A compound having a KD ratio of 0.1 or more and less than 3 is denoted as C) | C (A compound having a KD ratio of 0.1 or more and less than 3 is denoted as C) | –
10 | CCCN1C(=O)[C@@H]2CCN2C(=O)[C@H](C)N(C)C(=O)[C@H]([C@@H](C)CC)NC(=O)[C@H](CC(C)C)N(C)C(=O)C[C@@H](C(=O)N2CCC(C)CC2)N(C)C(=O)[C@H](C2CCCC2)N(C)C(=O)C2(CCCC2)NC(=O)[C@@H]2CCCN2C(=O)[C@H](CCc2ccc(C(F)(F)F)c(Cl)c2)NC(=O)CN(C)C(=O)[C@@H]1Cc1ccc(C(F)(F)F)cc1 [PP0185] ([NMeL]I[NMeA][Aze][NPrPhe(4-CF3)][Sar][hPhe(3-Cl-4-CF3)]P[Ac5c][NMeGly(cPent)][NMeD]-{Piperidide(4-Me)}; lactam N-11) | 1.1 | – | – | B (a compound having 3 or more and less than 10 is denoted as B) | C (A compound having a KD ratio of 0.1 or more and less than 3 is denoted as C) | –
11 | CCCN1C(=O)[C@@H]2CCN2C(=O)[C@H](C)N(C)C(=O)[C@H]([C@@H](C)CC)NC(=O)[C@H](CC(C)C)N(C)C(=O)C[C@@H](C(=O)N2CCOCC2)N(C)C(=O)[C@H](C2CCCC2)N(C)C(=O)C2(CCCC2)NC(=O)[C@@H]2C[C@@H](OC)CN2C(=O)[C@H](CCc2ccc(C(F)(F)F)c(Cl)c2)NC(=O)CN(C)C(=O)[C@@H]1Cc1ccc(C(F)(F)F)cc1 [PP0283] ([NMeL]I[NMeA][Aze][NPrPhe(4-CF3)][Sar][hPhe(3-Cl-4-CF3)][Hyp](Me)[Ac5c][NMeGly(cPent)][NMeD]-Morpholide; lactam N-11) | 0.063 | – | – | C (A compound having a KD ratio of 0.1 or more and less than 3 is denoted as C) | C (A compound having a KD ratio of 0.1 or more and less than 3 is denoted as C) | –
12 | CC[C@H](C)[C@@H]1NC(=O)[C@H](CC(C)C)N(C)C(=O)C[C@@H](C(=O)N2CCOCC2)N(C)C(=O)[C@H](C2CCCCC2)N(C)C(=O)C2(CCCC2)NC(=O)[C@@H]2CCCN2C(=O)[C@H](CCc2cc(F)c(C(F)(F)F)c(F)c2)NC(=O)CN(C)C(=O)[C@H](Cc2ccc(C(F)(F)F)cc2)N2CCCC[C@@H](C2=O)N(C)C(=O)CN(C)C1=O [PP0567] | 0.21 | B (a compound having 3 or more and less than 10 is denoted as B) | B (a compound having 3 or more and less than 10 is denoted as B) | – | – | –
